Values belong to the compound of their own block, whether it stands above or below them.
How the values were obtained:
[1] = test system: rat aortic smooth muscle cells (A10); test: A10 growth inhibition by PTX derivatives, Alamar Blue assay; assay type: cell-based; settings: free compound, 2 hr incubation, cell viability 7 days post treatment vs untreated cells
Method: Cells seeded at 10% confluency on 96-well plates were incubated with the compounds at indicated PTX molar equivalent doses for 2 hr, and the cell viability was compared to that of untreated cells 7 days post treatment using the Alamar Blue assay.

A10 cells [2] = test: Magnetically guided A10 growth inhibition by MNP loaded with PTX derivatives; assay type: cell-based, rat; settings: compounds formulated in MNP, 5 min exposure, high gradient magnetic field (32.5 T/m), viability 7 days post treatment
Method: Polylactide-based MNP were formulated with inclusion of nanocrystalline magnetite by a modification of the emulsification-solvent evaporation method. Ferric chloride hexahydrate and ferrous chloride tetrahydrate (170 and 62.5 mg, respectively) were dissolved in ethanol (2.5 mL) and mixed with freshly prepared aqueous sodium hydroxide (0.5 N, 5 mL). The precipitate was heated for 1 min at 90° C., cooled on ice, and separated on a magnet. The obtained magnetite was stirred with a solution of oleic acid in ethanol (150 mg in 2 mL) at 90° C. for 5 min. Free oleic acid was separated by deionized water. Magnetite was washed with ethanol, dispersed in 8 mL of chloroform, and used to dissolve 100 mg of poly(D,L-lactide) (molecular weight 75,000-120,000 Da) and 15 mg PTX or a PTX prodrug. The organic dispersion was emulsified by sonication on ice in 10 mL of an aqueous solution of bovine serum albumin (1% w/v), and the organic solvent was evaporated under reduced pressure. MNP were washed twice by magnetic decantation, resuspended in 6 mL of aqueous trehalose (10% w/v), passed through a sterile 5 μm filter unit and lyophilized. […]
Cells were incubated with indicated doses of the compounds formulated in MNP for 5 min with or without (mag+ or mag−) the presence of a high gradient magnetic field (average field gradient of 32.5 T/m). Cell viability was determined as above 7 days post treatment.

[3] = In vitro release kinetics and recovery from MNP, external sink method; assay type: physicochemical; settings: for total recovered (release medium samples and upon experiment termination): MNP diluted 1:500 in phosphate buffer with 2% bovine serum albumin, heptane/1-octanol acceptor, 5-day experiment; for initial drug payload still present in the MNP: at the end of the 5-day experiment, extraction in 1-octanol
Method: The release of 2′-PTX-glycol-suc-Chol from MNP was measured in comparison with PTX using the external sink method. A 1:1 mixture of heptane and 1-octanol was used as the acceptor medium to ensure perfect sink conditions. MNP were diluted 1:500 in phosphate buffer containing 2% bovine serum albumin, included to more closely model in vivo conditions. Released drug was assayed spectrophotometrically in the acceptor phase at predetermined timepoints (λ=230 nm). After five days the amount of the compounds remaining in MNP was measured following extraction in 1-octanol.

A10 cells [4] = test: A10 inhibition by MNP after 4-day incubation with fetal bovine serum at 37° C. (recovered activity); assay type: cell-based, rat; settings: MNP incubated 4 days in FBS at 37° C. vs fresh MNP, magnetic conditions, 5-20 ng drug per well
Method: MNP loaded with 2′-PTX-glycol-suc-Chol or PTX at 1 mg/mL were diluted 1:500 in fetal bovine serum (FBS), placed on a tube rotator and incubated for 4 days at 37° C. modeling the exposure of stent-targeted MNP to the in vivo environment. MNP suspensions were then applied to A10 cells for 5 min in the presence of a high gradient magnetic field (See Example 9) in a dose range equivalent to 5-20 ng drug per well based on their initial drug loading. Their growth inhibitory effect was compared with that of fresh MNP applied in equivalent dilutions under magnetic conditions, and the ratio between their respective inhibition efficiencies was plotted as Recovered activity, % of control (See FIG. 4).

[5] = Drug release from typical PTX MNP under sink conditions; assay type: physicochemical; settings: MNP comprising PTX, iron oxides and polylactide carrier
Description: For example in a typical MNP comprising PTX, iron oxides and a polylactide carrier, about 50% and 80% of the drug is released under sink conditions after 4 hr and 24 hr, respectively. This may be too fast for optimal restenosis inhibition, given that the period of vulnerability to restenotic activity may extend for several weeks. It is believed that the large surface area to volume ratio and small linear dimensions of nanoparticles, combined with the relatively low molecular weight of PTX and limited affinity toward the carrier particles, result in the excessively rapid PTX escape from the nanoparticles. To deal with this problem, it has been found necessary to greatly increase the affinity of the PTX for the polymeric carrier. This has now been done by binding PTX to a structure (hereinafter “anchor”) that limits the diffusivity within the MNP compared with that of unbound PTX itself. The resulting PTX-anchor conjugate is a PTX prodrug. Prodrugs according to the invention are converted to the corresponding drugs (e.g., PTX) in vivo in a patient, which may be a human or other animal. The prodrug can be incorporated in the MNP with a high entrapment yield and can provide protracted drug release at the site of arterial injury.

[6] = Model experiments estimating stability of ester bonds (half-hydrolysis in phosphate buffer); assay type: physicochemical; settings: pH=7 phosphate buffer at 21-22° C.
Description: Based on the results of the model experiments, paclitaxel 2′-esters with N-acylglycines and acyloxyacetic acids containing highly hydrophobic residues (e.g., derived from cholesterol or tocopherol) are the most suitable for encapsulation in sustained release nanoparticle formulations as rapidly cleavable PTX prodrugs. In the context of in-stent restenosis therapy, these unique designs more effectively confine the drug formulated in magnetically targeted MNP to the stented area. Importantly, the by-products of the prodrug degradation deriving from the anchor and the linking group are all biocompatible endogenous small molecules, rapidly eliminated via natural metabolic pathways.

Compound: CC(=O)O[C@H]1C(=O)[C@@]2(C)[C@H]([C@H](OC(=O)c3ccccc3)[C@]3(O)CC(OC(=O)[C@H](OC(=O)CNC(=O)CCC(=O)O[C@H]4CC[C@@]5(C)C(=CCC6C7CCC(C(C)CCCC(C)C)[C@@]7(C)CCC65)C4)[C@@H](NC(=O)c4ccccc4)c4ccccc4)C(C)=C1C3(C)C)[C@]1(OC(C)=O)CO[C@@H]1C[C@@H]2O (stereo partly shown) [2′-PTX-glycine-suc-Chol, PTX 2′-[N-(3-cholesteryloxycarbonyl)propionyl]glycinate]
- A10 cell growth inhibition [1]: dose-dependent A10 cell growth inhibition
- A10 cell growth inhibition, magnetic field (mag+) (A10 cells [2]): comparable to that of MNP loaded with PTX

Compound: CC(=O)O[C@H]1C(=O)[C@@]2(C)[C@H]([C@H](OC(=O)c3ccccc3)[C@]3(O)CC(OC(=O)[C@H](OC(=O)COC(=O)CCC(=O)O[C@H]4CC[C@@]5(C)C(=CCC6C7CCC(C(C)CCCC(C)C)[C@@]7(C)CCC65)C4)[C@@H](NC(=O)c4ccccc4)c4ccccc4)C(C)=C1C3(C)C)[C@]1(OC(C)=O)CO[C@@H]1C[C@@H]2O (stereo partly shown) [2′-PTX-glycol-suc-Chol, PTX 2′-(3-cholesteryloxycarbonyl)propionyloxyacetate]
- A10 cell growth inhibition [1]: dose-dependent A10 cell growth inhibition
- A10 cell growth inhibition, magnetic field (mag+) (A10 cells [2]): comparable to that of MNP loaded with PTX
- total recovered (release medium samples and upon experiment termination) [3]: 81%
- initial drug payload still present in the MNP [3]: 30%
- release kinetics from MNP vs. PTX ([3]; external sink method, 5 days): significantly slower release kinetics
- Recovered activity, % of control (fraction of initial activity retained) (A10 cells [4]): retained a larger fraction of its initial activity compared to PTX

Compound: CC(=O)OC1C(=O)C2(C)C(O)CC3OCC3(OC(C)=O)C2C(OC(=O)c2ccccc2)C2(O)CC(OC(=O)C(OC(=O)CCC(=O)OC3CCC4(C)C(=CCC5C4CCC4(C)C(C(C)CCCC(C)C)CCC54)C3)C(NC(=O)c3ccccc3)c3ccccc3)C(C)=C1C2(C)C (stereo not shown) [2′-PTX-suc-Chol]
- A10 cell growth inhibition [1]: no growth inhibition

- total recovered (release medium samples and upon experiment termination) [3]: 55%
- initial drug payload still present in the MNP [3]: none
- drug released ([5]; after 4 hr): about 50%
- drug released ([5]; after 24 hr): ~80%
Compound: CC(=O)O[C@H]1C(=O)[C@@]2(C)[C@H]([C@H](OC(=O)c3ccccc3)[C@]3(O)C[C@H](OC(=O)[C@H](O)[C@@H](NC(=O)c4ccccc4)c4ccccc4)C(C)=C1C3(C)C)[C@]1(OC(C)=O)CO[C@@H]1C[C@@H]2O [PTX, Paclitaxel]

- time of half-hydrolysis [6]: approximately 200 days
Compound: CCOC(C)=O [ethyl acetate]

- time of half-hydrolysis [6]: 27 days
Compound: CCOC(=O)CNC(C)=O [ethyl ester of N-acetylglycine, ethyl esters of N-acetylglycine]

Compound: CCOC(=O)COC(C)=O [ethyl ester of acetoxyacetic acid]
- time of half-hydrolysis [6]: 9 days
